Results: patent US20210032257A1, “(E)-1-(4-(DIMETHYLAMINO)BUT-2-ENOYL)PYRROLIDIN-3-YL 4-((3-ISOPROPYL-5-METHYLPYRAZOLO[1,5-A]PYRIMIDIN-7-YL)AMINO)PIPERIDINE-1-CARBOXYLATE FOR INHIBITING CDK7” (Eli Lilly and Company, priority 2017, published 2021)

Key:
Test in all cases: Biomarker study proliferation (CellTiter-Glo)
Type in all cases: cell-based
[1] = test system: AZ521
Description: (§1) Cancer cell lines are profiled to evaluate the anti-proliferative activity of a test compound in-vitro. Mutation, copy number and gene expression information of ARID1A, KMT2C, KMT2D and/or RB1 genes across cancer cell lines is obtained from COSMIC database (cancer.sanger.ac.uk) and cBioportal (http://www.cbioportal.org/). Cells are cultured in growth medium and plated into a 96-well plate in 100 μL/well growth medium at 5000 cells/well then incubated at 37° C., 5% CO2 overnight. Cells are cultured using supplier recommended media and conditions well known in the art, for example with RPMI 1640 with or without HEPES & L-Glutamine (Thermo SH30255.01) and 1 mM Sodium Pyruvate, and 10% FBS(Gibco cat #10082). The 1000× intermediate dilution plate is prepared by making a 10 mM working solution of a test sample in DMSO and performing 1:3 dilutions in DMSO for 10 points. The 10× dosing plate is prepared by adding 2 μL from the 1000× intermediate dilution plate to 198 μL of OPTIMEM®+10% FBS and mixing well. The cell plate is then treated by adding 11 μL from the 10× dosing plate into the 100 μL/well cell plate for a 1× final concentration. Staurosporine is used as a maximum growth inhibition control at a final concentration of 5 μM. The cell plate is incubated for 7 days at 37° C., 5% CO2. Seven days after treatment, Cell Titer-Glo® (Promega cat #G7571) assay buffer and substrate are removed from −20° C. and allowed to equilibrate to RT. Assay buffer is added to the substrate and swirled gently to mix. The CELL TITER-GLO® reagent (100 μL/well) is added to the cell plate and incubated at RT for 15 minutes. After 15 minutes, luminescence is read using a plate reader. Data is analyzed in Excel and graphed in GraphPad Prism. Statistical analysis and p value is calculated using Mann-Whitney nonparameteric t tests using GraphPad Prism.
(§2) Anti-proliferative effects of a test compound are categorized as insensitive (IC50≥1 μM), cytostatic (IC50<1 μM and % inhibition <70%) or cytotoxic (IC50<1 μM and % inhibition ≥70%).

[2] = test system: COLO320
Description: as §1, §2

[3] = test system: COV318; conditions: COV318, OVARY, 7 days
Description: as §1, §2

[4] = test system: EVSAT
Description: as §1, §2

[5] = test system: HL60
Description: as §1, §2

[6] = test system: HLF
Description: as §1, §2

[7] = test system: JHH4
Description: as §1, §2

[8] = test system: KE97
Description: as §1, §2

[9] = test system: MDAMB468
Description: as §1, §2

[10] = test system: NCIH1048
Description: as §1, §2

[11] = test system: NCIH2030
Description: as §1, §2

[12] = test system: NCIH441
Description: as §1, §2

[13] = test system: NUGC3
Description: as §1, §2

[14] = test system: PANC1
Description: as §1, §2

[15] = test system: RKO
Description: as §1, §2

[16] = test system: SNU245
Description: as §1, §2

[17] = test system: SW48
Description: as §1, §2

[18] = test system: SiHa
Description: as §1, §2

[19] = test system: TOV21G
Description: as §1, §2

[20] = 168 h, read-out: Anti-proliferation effect IC50
[21] = Homo sapiens, 168 h, read-out: Anti-proliferation effect IC50

Structure (SMILES): Cc1cc(NC2CCN(C(=O)O[C@H]3CCN(C(=O)/C=C/CN(C)C)C3)CC2)n2ncc(C(C)C)c2n1 [Example 1, [(3S)-1-[(E)-4-(dimethylamino)but-2-enoyl]pyrrolidin-3-yl] 4-[(3-isopropyl-5-methyl-pyrazolo[1,5-a]pyrimidin-7-yl)amino]piperidine-1-carboxylate]
- Anti-proliferation effect % Inh. ([1]; AZ521, STOMACH, 7 days): 76%
- Anti-proliferation effect Outcome ([1]; AZ521, STOMACH, 7 days): Cytotoxic (cytotoxic (IC50<1 μM and % inhibition ≥70%))
- IC50 ([1]; Homo sapiens, AZ-521, 168 h, read-out: Anti-proliferation effect IC50): 36 nM
- Anti-proliferation effect % Inh. ([2]; COLO320, INTESTINE, 7 days): 73%
- Anti-proliferation effect Outcome ([2]; COLO320, INTESTINE, 7 days): Cytotoxic (cytotoxic (IC50<1 μM and % inhibition ≥70%))
- IC50 ([2]; Homo sapiens, COLO 320, 168 h, read-out: Anti-proliferation effect IC50): 189 nM
- IC50 [3, 20]: > 10000 nM
- Anti-proliferation effect % Inh. [3]: 40%
- Anti-proliferation effect % Inh. ([4]; EVSAT, BREAST, 7 days): 79%
- Anti-proliferation effect Outcome ([4]; EVSAT, BREAST, 7 days): Cytotoxic (cytotoxic (IC50<1 μM and % inhibition ≥70%))
- IC50 ([4]; Homo sapiens, EVSA-T, 168 h, read-out: Anti-proliferation effect IC50): 40 nM
- Anti-proliferation effect % Inh. ([5]; HL60, BLOOD, 7 days): 87%
- Anti-proliferation effect Outcome ([5]; HL60, BLOOD, 7 days): Cytotoxic (cytotoxic (IC50<1 μM and % inhibition ≥70%))
- IC50 ([5]; Homo sapiens, HL-60, 168 h, read-out: Anti-proliferation effect IC50): 45 nM
- IC50 [6, 20]: 17 nM
- Anti-proliferation effect % Inh. ([6]; LIVER, 7 days): 100%
- Anti-proliferation effect Outcome ([6]; LIVER, 7 days): Cytotoxic (cytotoxic (IC50<1 μM and % inhibition ≥70%))
- Anti-proliferation effect % Inh. ([7]; JHH4, LIVER, 7 days): 65%
- Anti-proliferation effect Outcome ([7]; JHH4, LIVER, 7 days): Cytostatic (cytostatic (IC50<1 μM and % inhibition <70%))
- IC50 ([7]; JHH-4, 168 h, read-out: Anti-proliferation effect IC50): 166 nM
- Anti-proliferation effect % Inh. ([8]; KE97, BLOOD, 7 days): 58%
- Anti-proliferation effect Outcome ([8]; KE97, BLOOD, 7 days): Cytostatic (cytostatic (IC50<1 μM and % inhibition <70%))
- IC50 ([8]; KE-97, 168 h, read-out: Anti-proliferation effect IC50): 158 nM
- IC50 ([9]; Homo sapiens, MDA-MB-468, 168 h, read-out: Anti-proliferation effect IC50): 8 nM
- Anti-proliferation effect % Inh. ([9]; MDAMB468, BREAST, 7 days): 100%
- Anti-proliferation effect Outcome ([9]; MDAMB468, BREAST, 7 days): Cytotoxic (cytotoxic (IC50<1 μM and % inhibition ≥70%))
- IC50 ([10]; Homo sapiens, NCI-H1048, 168 h, read-out: Anti-proliferation effect IC50): 4 nM
- Anti-proliferation effect % Inh. ([10]; NCIH1048, LUNG, 7 days): 95%
- Anti-proliferation effect Outcome ([10]; NCIH1048, LUNG, 7 days): Cytotoxic (cytotoxic (IC50<1 μM and % inhibition ≥70%))
- IC50 ([11]; Homo sapiens, NCI-H2030, 168 h, read-out: Anti-proliferation effect IC50): 5370 nM
- Anti-proliferation effect % Inh. ([11]; NCIH2030, LUNG, 7 days): 9%
- Anti-proliferation effect Outcome ([11]; NCIH2030, LUNG, 7 days): Insensitive (insensitive (IC50≥1 μM))
- IC50 ([12]; Homo sapiens, NCI-H441, 168 h, read-out: Anti-proliferation effect IC50): 14 nM
- Anti-proliferation effect % Inh. ([12]; NCIH441, LUNG, 7 days): 84%
- Anti-proliferation effect Outcome ([12]; NCIH441, LUNG, 7 days): Cytotoxic (cytotoxic (IC50<1 μM and % inhibition ≥70%))
- IC50 ([13]; Homo sapiens, NUGC-3, 168 h, read-out: Anti-proliferation effect IC50): 30 nM
- Anti-proliferation effect % Inh. ([13]; NUGC3, STOMACH, 7 days): 81%
- Anti-proliferation effect Outcome ([13]; NUGC3, STOMACH, 7 days): Cytotoxic (cytotoxic (IC50<1 μM and % inhibition ≥70%))
- IC50 ([14]; Homo sapiens, PANC-1, 168 h, read-out: Anti-proliferation effect IC50): 71 nM
- Anti-proliferation effect % Inh. ([14]; PANC1, PANCREAS, 7 days): 47%
- Anti-proliferation effect Outcome ([14]; PANC1, PANCREAS, 7 days): Cytostatic (cytostatic (IC50<1 μM and % inhibition <70%))
- IC50 [15, 21]: 118 nM
- Anti-proliferation effect % Inh. ([15]; INTESTINE, 7 days): 61%
- Anti-proliferation effect Outcome ([15]; INTESTINE, 7 days): Cytostatic (cytostatic (IC50<1 μM and % inhibition <70%))
- IC50 [16, 20]: 1090 nM
- Anti-proliferation effect % Inh. ([16]; SNU245, BILIARY, 7 days): −5%
- Anti-proliferation effect Outcome ([16]; SNU245, BILIARY, 7 days): Insensitive (insensitive (IC50≥1 μM))
- IC50 ([17]; Homo sapiens, SW48, 168 h, read-out: Anti-proliferation effect IC50): 5 nM
- Anti-proliferation effect % Inh. ([17]; SW48, INTESTINE, 7 days): 89%
- Anti-proliferation effect Outcome ([17]; SW48, INTESTINE, 7 days): Cytotoxic (cytotoxic (IC50<1 μM and % inhibition ≥70%))
- Anti-proliferation effect % Inh. ([18]; CERVIX, 7 days): 58%
- Anti-proliferation effect Outcome ([18]; ENDOMETRIUM, 7 days): Cytostatic (cytostatic (IC50<1 μM and % inhibition <70%))
- IC50 [18, 21]: 105 nM
- IC50 [19, 21]: 61 nM
- Anti-proliferation effect % Inh. ([19]; OVARY, 7 days): 73%
- Anti-proliferation effect Outcome ([19]; OVARY, 7 days): Cytotoxic (cytotoxic (IC50<1 μM and % inhibition ≥70%))
